Results as given in patent US6323187A, “Therapeutic dinucleotide and derivatives” (priority 1999, dated 2001).

Tests used:
[1] = system: P2Y1; test: Inositol phosphate assay, P2Y1 receptor; assay type: cell-based; conditions: IA = no agonist activity at 30 μM
Method: (§1) The pharmaceutical utility of the compounds of this invention is indicated by the inositol phosphate assay for P2Y2 and other P2Y receptor activity. This widely used assay, as described in E. Lazarowski, et al., Brit. J. Pharm. 116, 1619-27 (1995), relies on the measurement of inositol phosphate formation as a measurement of activity of compounds activating receptors linked via G-proteins to phospholipase C.
(§2) The compounds of Formula I was tested for its ability to elicit P2Y1, P2Y2, P2Y4 and P2Y6 receptor activity using the inositol phosphate assay as described by E. Lazarowski, et al., Brit. J. Pharm. 116, 1619-27 (1995).

[2] = target: T1, P2Y2 (Homo sapiens, UniProt P41231); test: Inositol phosphate assay, P2Y2 receptor; assay type: cell-based; conditions: IA = no agonist activity at 30 μM
T1 construct: expressed in transfected cells
Method: as §1, §2

[3] = target: P2Y4 (Homo sapiens, UniProt P51582); test: Inositol phosphate assay, P2Y4 receptor; assay type: cell-based; conditions: IA = no agonist activity at 30 μM
Method: as §1, §2

[4] = system: P2Y6; test: Inositol phosphate assay, P2Y6 receptor; assay type: cell-based; conditions: IA = no agonist activity at 30 μM
Method: as §1, §2

[5] = system: human nasal epithelial cells; test: Chloride secretion in human nasal airway cells (change in ISC); assay type: cell-based; conditions: more potent than U2 P4; amiloride 100 μM present; apical addition
Method: Airway epithelial cells were desegregated and isolated from freshly excised human nasal surgical specimens (Yankaskas, et al., Am. Rev. Respir. Dis. 132, 1281-1287 (1985)). Confluent monolayers were cultured on permeable collagen matrix supports in F-12 hormone-supplemented medium (Wu, et. al., Am. Rev. Respir. Dis. 132, 311-320 (1985)). Cells were incubated at 37° C. and grown to confluence. Development of transepithelial resistance was monitored to determine the formation of tight junctions between the cells. After formation of tight junctions, was confirmed, the matrix supports containing the cultures were mounted in modified Using chambers. […]
Polycarbonate Using chambers were milled to fit the plastic cups that supported the permeable collagen matrix on which the cells were grown. Bioelectric properties including ISC, transepithelial potential difference and resistance were monitored. Short-circuit current (ISC) was measured with a digital voltmeter (UNC Electronics, Chapel Hill, N.C.) and plotted on a strip-chart recorder. The open circuit potential was recorded periodically, and conductance was monitored in the voltage clamp mode by the current deflection in response to a 10-mV voltage pulse.
A stable baseline of ISC was recorded and amiloride (100 μM) was added to the solution bathing the apical surface to block sodium absorption. […] The change in ISC was recorded. […]

[6] = system: sputum production; conditions: normal healthy volunteers; background section; cited from earlier work
[7] = in vitro; conditions: human, bronchial epithelial cells, pH 7.2
Method: Epithelial cells were grown as monolayers on an airliquid interface in ALI medium. Assays were conducted on fully differentiated cells in KRB-Ringer solution (pH 7.2) at 37° C. with 0.1 mM nucleotide substrate. Aliquots of airway surface liquid were removed at 5, 10, 15, 20, 40 and 60 minutes. The metabolism was stopped by boiling and filtering the aliquots, and the samples were analyzed by high performance liquid chromatography using the following conditions: C- 18 column with a 55 min gradient of 10-100 mM KH2 PO4 and constant 8 mM tetrabutyl ammonium hydrogen sulfate and 10% methanol).

[8] = system: goblet cells; conditions: in vitro; M. Lethem, et al. (1993); cited from earlier work
[9] = system: human airway epithelial cells; conditions: human airway epithelial cells in vitro; D. Drutz, et al. (1996); cited from earlier work
[10] = system: airway epithelial cells; conditions: airway epithelial cells in vitro; S. Mason, et al. (1991); cited from earlier work
[11] = system: Type II alveolar cells; conditions: Gobran (1994); cited from earlier work
[12] = system: P2Y2 receptor; conditions: H. Brown, et al. (1991); cited from earlier work
[13] = system: lung mucociliary clearance; conditions: normal volunteers; K. Olivier, et al. (1996); cited from earlier work
[14] = system: cough clearance; conditions: patients with PCD; P. Noone, et al. (1996); cited from earlier work

T1 sequence (P41231 whole entry): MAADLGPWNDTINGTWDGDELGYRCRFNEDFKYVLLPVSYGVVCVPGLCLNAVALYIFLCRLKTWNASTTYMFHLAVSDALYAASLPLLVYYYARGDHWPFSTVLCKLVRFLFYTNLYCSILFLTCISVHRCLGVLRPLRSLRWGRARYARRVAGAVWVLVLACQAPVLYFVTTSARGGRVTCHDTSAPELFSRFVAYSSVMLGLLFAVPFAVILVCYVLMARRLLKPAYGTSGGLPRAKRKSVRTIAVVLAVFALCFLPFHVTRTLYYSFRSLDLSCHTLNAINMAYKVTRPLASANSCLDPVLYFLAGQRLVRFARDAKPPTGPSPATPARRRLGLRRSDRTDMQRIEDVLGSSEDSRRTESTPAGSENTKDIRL
Chain of P2Y4 (P51582 whole entry, species assumed): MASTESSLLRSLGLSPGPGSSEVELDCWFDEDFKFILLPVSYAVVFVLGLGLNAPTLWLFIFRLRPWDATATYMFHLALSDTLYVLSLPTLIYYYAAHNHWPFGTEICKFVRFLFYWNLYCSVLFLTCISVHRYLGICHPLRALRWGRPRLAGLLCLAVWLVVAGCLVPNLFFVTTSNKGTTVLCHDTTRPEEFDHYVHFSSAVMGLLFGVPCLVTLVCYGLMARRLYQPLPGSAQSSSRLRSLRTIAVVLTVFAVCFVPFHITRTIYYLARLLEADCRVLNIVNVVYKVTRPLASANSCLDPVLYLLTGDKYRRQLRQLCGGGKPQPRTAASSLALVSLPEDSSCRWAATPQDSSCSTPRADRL

Structure (SMILES) | EC50 [1] [µM] | EC50 [2] [µM] | EC50 [3] [µM] | EC50 [4] [µM] | metabolised at 1 h, 100 µM [7] [%] | also measured
Nc1ccn([C@@H]2O[C@H](COP(=O)(O)OP(=O)(O)OP(=O)(O)OP(=O)(O)OC[C@H]3O[C@@H](n4ccc(N)nc4=O)[C@H](O)[C@@H]3O)[C@@H](O)[C@H]2O)c(=O)n1 [C2 P4] | > 30 | > 30 | > 30 | > 30 | – | –
Nc1ccn([C@@H]2O[C@H](COP(=O)(O)OP(=O)(O)OP(=O)(O)OP(=O)(O)OC[C@H]3O[C@@H](n4ccc(=O)[nH]c4=O)[C@H](O)[C@@H]3O)[C@@H](O)[C@H]2O)c(=O)n1 [CP4 U, P^1-(cytidine 5'-)-P^4-(uridine 5'-)-tetraphosphate] | > 30 | 0.45 | 0.65 | 3.5 | – | potency relative to U2 P4 in the chloride secretion assay [5]: approximately ten-fold
O=c1ccn([C@@H]2O[C@H](COP(=O)(O)OP(=O)(O)OP(=O)(O)OP(=O)(O)OC[C@H]3O[C@@H](n4ccc(=O)[nH]c4=O)[C@H](O)[C@@H]3O)[C@@H](O)[C@H]2O)c(=O)[nH]1 [U2 P4, P^1,P^4 -Di(uridine 5'-)tetraphosphate] | – | – | – | – | 40 | sputum production [6]: increase sputum production
O=c1ccn([C@@H]2O[C@H](COP(=O)(O)OP(=O)(O)OP(=O)(O)O)[C@@H](O)[C@H]2O)c(=O)[nH]1 [UTP, uridine 5'-triphosphate] | – | – | – | – | 100 | mucin secretion by goblet cells [8]: increase both the rate and total amount of mucin secretion; cilia beat frequency [9]: increase cilia beat frequency; Cl^- secretion [10]: increase Cl^- secretion; release of surfactant from Type II alveolar cells [11]: release of surfactant; intracellular Ca^++ [12]: increase intracellular Ca^++; lung mucociliary clearance [13]: improvement in lung mucociliary clearance; side-effects [13]: without any significant side-effects; cough clearance [14]: significantly enhances cough clearance
